# Measurements taken from US20210246122A1, “Triazine Compounds and Uses Thereof” (Aduro Biotech, Inc., priority 2018, published 2021).
# Target: T1, Human cGAS amino acids 155-522 (Homo sapiens, UniProt Q8N884)
# T1 construct: hexahistidine tag (N, cleaved yes); made in house; host or cells: E. coli BL21 DE3 Rosetta 2
# Assay: cGAS activity assay (DNA-activated cGAS, remaining ATP measured by Kinase-Glo Max luciferase assay)
# Format: biochemical
# Details: 300 nM purified cGAS, 1 μM dsDNA, 250 μM ATP, 100 μM GTP, 37° C. for 1.25 hours
# Description: IC50 values were determined as follows:
# Human cGAS sequence encoding amino acids 155-522 was cloned into a pET (EMD Millipore) based expression plasmid. The resulting construct contained a tandem N-terminal hexahistidine tag, maltose binding protein fusion followed by a tobacco etch virus protease cleavable linker preceding cGAS amino acids 155-522.
# Construct sequence: Amino acids 155-522, Human cGAS
# Protein was expressed and purified from E. coli BL21 DE3 Rosetta 2 (EMD Millipore) cells using standard techniques. Cells were grown in 2× yeast extract tryptone medium and expression was initiated via the addition of isopropyl β-D-1-thiogalactopyranoside. Expression proceeded overnight at 18° C. Cells were harvested by centrifugation and subsequently lysed via sonication. Insoluble fraction was removed by centrifugation. Maltose binding protein (MBP) fusion proteins were purified on a dextrin sepharose column (GE Healthcare) and the MBP tag was removed using tobacco etch virus protease overnight during dialysis. Protein was further purified on a heparin column (GE Healthcare) and eluted using a NaCl gradient. Column fraction were pooled and further purified on a Superdex 75 gel filtration column (GE Healthcare). Protein was quantified using 280 nm absorbance. Protein was then flash frozen in liquid nitrogen and stored at −80° C. until use.
# Potential antagonists were diluted in 100% dimethyl sulfoxide and added to the reaction. Final dimethyl sulfoxide concentration was 5%. The compounds were tested from 1 μM with either 3- or 4-fold serial dilutions down to 0.000051 or 0.000004 μM respectively.
# Two complementary DNA oligos (IDT DNA) were annealed by slow cooling from 95° C. The resulting double stranded DNA was used to activate cGAS.
# Reactions were performed at 37° C. for 1.25 hours. Reaction buffer: 20 mM Tris HCl pH 9, 100 mM NaCl, 5 mM MgCl2, 0.1 mg/ml bovine gamma globulin, 250 μM adenosine triphosphate, 100 μM guanosine triphosphate, 0.5 mM Tris(2-carboxyethyl)phosphine hydrochloride, 1 μM double stranded DNA and 300 nM purified cGAS protein.
# Reactions were stopped and ATP levels in the reaction were measured using a luciferase based assay. Promega Kinase-Glo Max Assay. Luminescence was measured on a plate reader (Molecular Devices). Values were normalized to control wells lacking compound.
# T1 sequence (Q8N884 157-522): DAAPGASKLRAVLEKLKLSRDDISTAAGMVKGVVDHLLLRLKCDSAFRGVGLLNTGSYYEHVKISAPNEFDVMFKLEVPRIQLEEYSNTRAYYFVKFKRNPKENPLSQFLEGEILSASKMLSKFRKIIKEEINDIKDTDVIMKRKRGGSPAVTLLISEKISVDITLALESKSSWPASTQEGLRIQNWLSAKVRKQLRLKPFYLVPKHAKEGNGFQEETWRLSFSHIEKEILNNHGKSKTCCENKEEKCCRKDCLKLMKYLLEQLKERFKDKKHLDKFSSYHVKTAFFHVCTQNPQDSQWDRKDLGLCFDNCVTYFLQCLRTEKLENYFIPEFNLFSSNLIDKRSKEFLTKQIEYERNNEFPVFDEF
row,SMILES,IC50 [µM]
1,"COCCNC(=O)[C@H](Cc1ccc(C#N)cc1)Nc1nc(NCc2nc3cc(F)ccc3[nH]2)nc(Nc2cccc(CN3CCNCC3)c2)n1 [TA1017, (S)-3-(4-cyanophenyl)-2-((4-(((5-fluoro-1H-benzo[d]imidazol-2-yl)methyl)amino)-6-((3-(piperazin-1-ylmethyl)phenyl)amino)-1,3,5-triazin-2-yl)amino)-N-(2-methoxyethyl)propanamide]",> 250
2,"COC(=O)[C@H](CC1CCCCC1)Nc1nc(NCc2nc3cc(F)ccc3[nH]2)nc(Nc2cccc(CN3CCN(C(=O)c4nccnc4O)CC3)c2)n1 [TA1072, methyl (S)-3-cyclohexyl-2-((4-(((5-fluoro-1H-benzo[d]imidazol-2-yl)methyl)amino)-6-((3-((4-(3-hydroxypyrazine-2-carbonyl)piperazin-1-yl)methyl)phenyl)amino)-1,3,5-triazin-2-yl)amino)propanoate]",< 20
3,"Cc1cc2nc(CN(C)c3nc(Nc4cccc(CN5CCN(C(=O)c6cc7[nH]cnc7cc6C)CC5)c4)nc(N[C@@H](Cc4ccc(C#N)cc4)C(=O)N(C)C)n3)[nH]c2cc1C [TA1015, (S)-3-(4-cyanophenyl)-2-((4-(((5,6-dimethyl-1H-benzo[d]imidazol-2-yl)methyl)(methyl)amino)-6-((3-((4-(5-methyl-1H-benzo[d]imidazole-6-carbonyl)piperazin-1-yl)methyl)phenyl)amino)-1,3,5-triazin-2-yl)amino)-N,N-dimethylpropanamide]",> 250
4,"COC(=O)[C@H](Cc1ccc(C#N)cc1)Nc1nc(Nc2cccc(CN3CCN(C(=O)c4csnn4)CC3)c2)nc(N(C)CCc2nc3ccc(OC)cc3[nH]2)n1 [TA1055, methyl (S)-2-((4-((3-((4-(1,2,3-thiadiazole-4-carbonyl)piperazin-1-yl)methyl)phenyl)amino)-6-((2-(6-methoxy-1H-benzo[d]imidazol-2-yl)ethyl)(methyl)amino)-1,3,5-triazin-2-yl)amino)-3-(4-cyanophenyl)propanoate]",> 250
5,"COC(=O)[C@H](Cc1ccc(C#N)cc1)Nc1nc(NCc2nc3cc(Cl)ccc3[nH]2)nc(Nc2cccc(CN3CCN(C=O)CC3)c2)n1 [TA1062, methyl (S)-2-((4-(((5-chloro-1H-benzo[d]imidazol-2-yl)methyl)amino)-6-((3-((4-formylpiperazin-1-yl)methyl)phenyl)amino)-1,3,5-triazin-2-yl)amino)-3-(4-cyanophenyl)propanoate]",20 to 250
6,"CN(C)C(=O)[C@H](Cc1ccc(C#N)cc1)Nc1ncnc(Nc2cccc(CN3CCNCC3)c2)n1 [TA1011, (S)-3-(4-cyanophenyl)-N,N-dimethyl-2-((4-((3-(piperazin-1-ylmethyl)phenyl)amino)-1,3,5-triazin-2-yl)amino)propanamide]",> 250
7,"CN(C)C(=O)[C@H](Cc1ccc(C#N)cc1)Nc1ncnc(Nc2cccc(CN3CCN(C(=O)OC(C)(C)C)CC3)c2)n1 [TA1010, tert-butyl (S)-4-(3-((4-((3-(4-cyanophenyl)-1-(dimethylamino)-1-oxopropan-2-yl)amino)-1,3,5-triazin-2-yl)amino)benzyl)piperazine-1-carboxylate]",> 250
8,"COC(=O)[C@H](Cc1ccc(C#N)cc1)Nc1nc(Nc2cccc(CN3CCN(C(=O)c4cnccn4)CC3)c2)nc(N(C)CCc2nc3ccc(OC)cc3[nH]2)n1 [TA1054, methyl (S)-3-(4-cyanophenyl)-2-((4-((2-(6-methoxy-1H-benzo[d]imidazol-2-yl)ethyl)(methyl)amino)-6-((3-((4-(pyrazine-2-carbonyl)piperazin-1-yl)methyl)phenyl)amino)-1,3,5-triazin-2-yl)amino)propanoate]",> 250
9,"COC(=O)[C@H](Cc1ccc(C#N)cc1)Nc1nc(Nc2cccc(CN3CCN(C(C)=O)CC3)c2)nc(N(Cc2nc3cc(F)ccc3[nH]2)C(C)=O)n1 [TA1076, methyl (S)-2-((4-((3-((4-acetylpiperazin-1-yl)methyl)phenyl)amino)-6-(N-((5-fluoro-1H-benzo[d]imidazol-2-yl)methyl)acetamido)-1,3,5-triazin-2-yl)amino)-3-(4-cyanophenyl)propanoate]",> 250
10,"COC(=O)[C@H](Cc1ccc(C#N)cc1)Nc1nc(NCc2ccccc2)nc(Nc2cccc(CN3CCNCC3)c2)n1 [TA1049, methyl (S)-2-((4-(benzylamino)-6-((3-(piperazin-1-ylmethyl)phenyl)amino)-1,3,5-triazin-2-yl)amino)-3-(4-cyanophenyl)propanoate]",> 250
11,"Cc1cc2nc(CN(C)c3nc(Nc4cccc(CN5CCNCC5)c4)nc(N[C@@H](Cc4ccc(C#N)cc4)C(=O)N(C)C)n3)[nH]c2cc1C [TA1014, (S)-3-(4-cyanophenyl)-2-((4-(((5,6-dimethyl-1H-benzo[d]imidazol-2-yl)methyl)(methyl)amino)-6-((3-(piperazin-1-ylmethyl)phenyl)amino)-1,3,5-triazin-2-yl)amino)-N,N-dimethylpropanamide]",> 250
12,"CN(C)C(=O)[C@H](Cc1ccc(C#N)cc1)Nc1nc(Cl)nc(Nc2cccc(CN3CCN(C(=O)OC(C)(C)C)CC3)c2)n1 [TA1008, tert-butyl (S)-4-(3-((4-chloro-6-((3-(4-cyanophenyl)-1-(dimethylamino)-1-oxopropan-2-yl)amino)-1,3,5-triazin-2-yl)amino)benzyl)piperazine-1-carboxylate]",> 250
13,"COC(=O)[C@H](Cc1ccc(C#N)cc1)Nc1nc(Nc2cccc(CN3CCNCC3)c2)nc(OC)n1 [TA1028, methyl (S)-3-(4-cyanophenyl)-2-((4-methoxy-6-((3-(piperazin-1-ylmethyl)phenyl)amino)-1,3,5-triazin-2-yl)amino)propanoate]",> 250
14,"COC(=O)[C@H](Cc1ccc(C#N)cc1)Nc1nc(NCc2nc3cc(Cl)ccc3[nH]2)nc(Nc2cccc(CN3CCNCC3)c2)n1 [TA1058, methyl (S)-2-((4-(((5-chloro-1H-benzo[d]imidazol-2-yl)methyl)amino)-6-((3-(piperazin-1-ylmethyl)phenyl)amino)-1,3,5-triazin-2-yl)amino)-3-(4-cyanophenyl)propanoate]",20 to 250
15,"CNC(=O)[C@H](Cc1ccc(C#N)cc1)Nc1nc(NCc2nc3cc(F)ccc3[nH]2)nc(Nc2cccc(CN3CCNCC3)c2)n1 [TA1022, (S)-3-(4-cyanophenyl)-2-((4-(((5-fluoro-1H-benzo[d]imidazol-2-yl)methyl)amino)-6-((3-(piperazin-1-ylmethyl)phenyl)amino)-1,3,5-triazin-2-yl)amino)-N-methylpropanamide]",> 250
16,"CNc1nc(Nc2cccc(CN3CCN(C(=O)c4nccnc4O)CC3)c2)nc(N[C@@H](Cc2ccc(C#N)cc2)C(=O)OC)n1 [TA1035, methyl (S)-3-(4-cyanophenyl)-2-((4-((3-((4-(3-hydroxypyrazine-2-carbonyl)piperazin-1-yl)methyl)phenyl)amino)-6-(methylamino)-1,3,5-triazin-2-yl)amino)propanoate]",> 250
17,"COC(=O)[C@H](Cc1ccc(C#N)cc1)Nc1nc(NCc2nc3cc(F)ccc3[nH]2)nc(Nc2cccc(CN3CCN(C(=O)c4nccnc4OC)CC3)c2)n1 [TA1078, methyl (S)-3-(4-cyanophenyl)-2-((4-(((5-fluoro-1H-benzo[d]imidazol-2-yl)methyl)amino)-6-((3-((4-(3-methoxypyrazine-2-carbonyl)piperazin-1-yl)methyl)phenyl)amino)-1,3,5-triazin-2-yl)amino)propanoate]",> 250
18,"COC(=O)[C@H](Cc1ccc(C#N)cc1)Nc1nc(NCc2nnn[nH]2)nc(Nc2cccc(CN3CCN(C(=O)c4nccnc4O)CC3)c2)n1 [TA1069, methyl (S)-2-((4-(((1H-tetrazol-5-yl)methyl)amino)-6-((3-((4-(3-hydroxypyrazine-2-carbonyl)piperazin-1-yl)methyl)phenyl)amino)-1,3,5-triazin-2-yl)amino)-3-(4-cyanophenyl)propanoate]",> 250
19,"CN(C)C(=O)[C@H](Cc1ccc(C#N)cc1)Nc1nc(NCc2nc3cc(F)ccc3[nH]2)nc(Nc2cccc(CN3CCN(C=O)CC3)c2)n1 [TA1016, (S)-3-(4-cyanophenyl)-2-((4-(((5-fluoro-1H-benzo[d]imidazol-2-yl)methyl)amino)-6-((3-((4-formylpiperazin-1-yl)methyl)phenyl)amino)-1,3,5-triazin-2-yl)amino)-N,N-dimethylpropanamide]",20 to 250
20,"COC(=O)[C@H](Cc1ccc(C#N)cc1)Nc1nc(NCc2nc3cc(F)ccc3[nH]2)nc(Nc2cccc(CN3CCN(C(=O)C4CCN(S(C)(=O)=O)CC4)CC3)c2)n1 [TA1079, methyl (S)-3-(4-cyanophenyl)-2-((4-(((5-fluoro-1H-benzo[d]imidazol-2-yl)methyl)amino)-6-((3-((4-(1-(methylsulfonyl)piperidine-4-carbonyl)piperazin-1-yl)methyl)phenyl)amino)-1,3,5-triazin-2-yl)amino)propanoate]",> 250
